Laboratory results as given in patent publication US20020110808A1, “Toxicant-induced differential gene expression” (priority 2000, published 2002).
Read-outs that look alike come from different tables or passages of the source.

Key:
HepG2 cells [1] = assay: Quantitative RT-PCR (TaqMan); format: cell-based, human
Protocol: Primers and probes were designed using Primer Express software (Perkin-Elmer). TaqMan probes (Perkin-Elmer) were synthesized with reporter dye 6FAM at the 5′ end and quencher TAMRA at the 3′ end. RNA template concentrations were determined by absorbance at 260 nm. Reactions were performed as described […], using 2.5 ng RNA, 300 nM each PCR primer, and 150 nM Taqman probes. Control reactions were set up with reverse transcriptase or template omitted. Reactions were run on an ABI 7700 instrument (Perkin-Elmer) using the following cycling conditions: reverse transcription at 48° C. for 30 min; inactivation of reverse transcriptase at 95° C. for 10 min; 40 cycles of denaturation at 94° C. for 15 sec and extension at 60° C. for 1 min. Changes in expression were calculated from the displacement of the amplification curve in the treated sample relative to the control.

HepG2 cells [2] = assay: BrdU incorporation cell proliferation assay; format: cell-based
Protocol: HepG2 cells (see e.g., Aden et al., Nature 282:615-616 (1979)) (ATCC HB-8065) were maintained in DMEM/F-12 medium with 10% fetal bovine serum and 1% antibiotic/antimycotic. For routine culturing and mRNA preps, cells were grown in 75 cm^2 flasks and split every 4-5 days. For plate assays, cells were plated in 96-well microtiter plates at 1×10^5 cells per well in 100 μl of growth medium.
Depending on the desired exposure time, cell treatments began 3 or 4 days after splitting or plating. At this time, the cells were near or at confluency. […] Cell treatments were at 37° C.
Uptake of 5-bromo-2′-deoxyuridine (BrdU) was measured using the Cell Proliferation ELISA kit from Boehringer-Mannheim (Indianapolis, Ind.).
Cell proliferation assays based on measurement of BrdU incorporation were performed according to the manufacturer's instructions (Boehringer Mannheim “Cell Proliferation ELISA Kit”).

HepG2 cells [3] = assay: cDNA array (GF200) expression profiling; format: cell-based, human; conditions: for Number of genes with statistically significant (p<0.05) change in expression in three or more adjacent time points: 1 to 24 hr time course
Protocol: Cells were grown in DMEM/F12 medium with 10% fetal bovine serum in tissue culture flasks for 3 days following splitting, at which time they were at or near confluency. […] For each treated sample, an untreated control flask was set up with the same medium. Following the treatment period, mRNA was isolated by affinity purification on oligo(dT) cellulose resin using the Poly(A) Pure mRNA isolation kit from Ambion. RNA quality was assessed by agarose gel electrophoresis, and yields were determined by absorbance at 260 nm.
Radiolabeled cDNA for array hybridizations were prepared as follows. To a solution of 2 μg of RNA in 8 μl DEPC-treated water was added 2 μl of 1 μg/μl oligo(dT) (10-20 mer mixture, Research Genetics). After incubation for 10 min at 70° C., the solution was chilled on ice for 2 min, and then added to 6 μl of 5× first strand buffer (250 mM Tris-HCl (pH 8.3), 375 mM KCl, 15 mM MgCl2; Gibco-BRL), 1 μl of 0.1M DTT, 1.5 μl dNTP mix (20 mM each dATP, dGTP and dTTP), 10 μl of 10 mCi/ml [α-^33P]dCTP (1000 Ci/mmol, Amersham), and 1.5 μl of 200 U/μl reverse transcriptase (Superscript II, Gibco-BRL). Following a 90 min incubation at 37° C., cDNA targets were purified by passage through G-50 Sephadex spin columns (Pharmacia) or Bio-Spin 6 columns (BioRad).
GF200 cDNA arrays (Research Genetics) were washed in 0.5% boiling SDS for 5 min and prehybridized for 3 hrs at 42° C. in 5 ml MicroHyb solution (Research Genetics) containing 5 μl of 1 μg/ml poly(dA) (Research Genetics) and 5 μl of 1 μg/ml human Cot-I DNA (Gibco-BRL) that was denatured for 3 min at 100° C. prior to use. Labeled target nucleic acids, boiled for 3 min, were added directly, and hybridization was allowed to proceed for 16-18 hr at 42° C. in roller bottles in hybridization ovens. Arrays were washed twice in 2× SSC, 1% SDS at room temperature for 2 min, and then twice in 0.5× SSC, 1% SDS at 65° C. for 20 min. Arrays were exposed to storage phosphor screens for 3 days and scanned using a phosphorimager (Molecular Dynamics). Arrays were stripped for reuse by placing in boiling 0.5% SDS and then incubating for 1.5 hr with shaking at room temperature, allowing to solution to cool. After stripping, arrays were exposed to storage phosphor screens overnight to confirm loss of signal.
Spot intensities were determined using Pathways software (Research Genetics). Data from quadruplicate sets of hybridizations were normalized by local regression using NLR software (Tom Kepler, North Carolina State University). Cluster analysis was carried out using the Clustan Graphics software package from Clustan Limited (Edinburgh).

[4] = 20 mM acetaminophen, 16 mM caffeine, 100 mM thioacetamide

Structure (SMILES) | TTF-1 interacting peptide 21 down-regulation by RT-PCR (HepG2 cells [1]; acetaminophen, 12 hr) [fold] | inhibition at 20000 µM (HepG2 cells [2]; Homo sapiens, HepG2, 24 h; read-out: Inhibition of BrdU uptake (cell proliferation)) [%] | IC50 (HepG2 cells [2]; Homo sapiens, HepG2; read-out: IC50, BrdU incorporation in HepG2 cells) [mM] | Number of genes with statistically significant (p<0.05) change in expression in three or more adjacent time points (HepG2 cells [3]; [4]) | LDH-A down-regulation on arrays (HepG2 cells [3]; 24 hr, 20 mM acetaminophen, wash 0.5× SSC at 65° C.) [fold] | Metallothionein-1G induction on arrays (HepG2 cells [3]; acetaminophen, 24-hr time point) [fold] | TTF-1 interacting peptide 21 up-regulation on arrays (HepG2 cells [3]; acetaminophen, 12 hr) [fold] | Expression ratio (treated/control), RT-PCR: MT-1G (H53340) (HepG2 cells [1]; Thioacetamide (24 hr)) | Expression ratio (treated/control), RT-PCR: MT-2 (R16596) (HepG2 cells [1]; Thioacetamide (24 hr)) | Expression ratio (treated/control), RT-PCR: MT-1H (H77766) (HepG2 cells [1]; Thioacetamide (24 hr), not detectable in control samples) | IC50 (HepG2 cells [2]; Homo sapiens, HepG2, read-out: IC50, BrdU incorporation in HepG2 cells) [mM] | Metallothionein-1H induction (HepG2 cells [3]) | Global differential gene expression (rms) over time (HepG2 cells [3]; 1 to 24 hr, 20 mM acetaminophen, 16 mM caffeine, 100 mM thioacetamide) | Expression ratio (treated/control), Array: MT-1B (H72722) (HepG2 cells [3]; Thioacetamide (24 hr)) | Expression ratio (treated/control), Array: MT-1G (H53340) (HepG2 cells [3]; Thioacetamide (24 hr)) | Expression ratio (treated/control), Array: MT-1H (H77766) (HepG2 cells [3]; Thioacetamide (24 hr)) | Expression ratio (treated/control), Array: MT-1L (N80129) (HepG2 cells [3]; Thioacetamide (24 hr)) | Expression ratio (treated/control), Array: MT-2 (R16596) (HepG2 cells [3]; Thioacetamide (24 hr))
CC(=O)Nc1ccc(O)cc1 [acetaminophen] | ~2 | 67 to 80 | ~5 | 258 | 11 | 18 | 2.6 |  |  |  |  |  |  |  |  |  |  | 
CC(=N)S [thioacetamide] |  |  |  | 215 |  |  |  | 3.1 | 7.4 | >1000 | 57 | strongly induced | a high degree of differential expression is observed both at early and late time points | 15 | 15 | 16 | 14 | 15
